Here are results for 33 molecules from patent publication EP4810040A2, “INHIBITORS OF APOL1 AND METHODS OF USING SAME” (priority 2020, dated 2022).

Where two headings read alike, the source gives them in different places.

The assay has as its target T1, APOL1 G1 (Homo sapiens, UniProt O14791, I384M/S342G).
T1 sequence (O14791 28-398 S342G/I384M): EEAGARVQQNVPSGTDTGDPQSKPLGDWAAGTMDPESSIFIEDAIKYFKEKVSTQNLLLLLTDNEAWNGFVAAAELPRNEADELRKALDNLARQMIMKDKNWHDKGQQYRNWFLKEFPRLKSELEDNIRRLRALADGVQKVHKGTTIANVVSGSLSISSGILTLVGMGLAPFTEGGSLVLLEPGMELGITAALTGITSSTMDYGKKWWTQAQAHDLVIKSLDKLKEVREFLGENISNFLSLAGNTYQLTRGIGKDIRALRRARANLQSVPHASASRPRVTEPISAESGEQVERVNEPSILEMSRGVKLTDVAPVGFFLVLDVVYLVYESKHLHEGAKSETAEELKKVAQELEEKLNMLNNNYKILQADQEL
Nature of the assay: MultiTox-Fluor Multiplex Cytotoxicity Assay, tet-inducible APOL1 G1 T-REx-HEK293 cells. The class given is cell-based. Also on record: expressed in transfected cells; host or cells: T-REx HEK293, clone G1 DC3.25 (pAAVS1-Puro-APOL1 G1). The settings on record: for Emax: read-out: Multi-Tox Assay Max Activity (%). In short, it runs like this: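 T-REx-HEK293 cells carrying tet-inducible APOL1 G1 induced with 50 ng/mL tet alongside compound (top 10 µM, 10-point 3-fold, duplicate) for 24 h at 37 °C. MultiTox-Fluor dead/live protease fluorescence ratio read after 30 min; normalized to no-tet (100% viability) and tet-treated (0%) controls, then curve-fitted.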

Setting [1] is: HEK293, Multi-Tox Assay, APOL1 variant (G0/G1/G2) of the HEK293 cells not given, read-out: Multi-Tox Assay IC90.
[2] abbreviates: Multi-Tox Assay, APOL1 variant not given.

Consider `C[C@H]1C[C@@]2(C[C@@H](c3cn(C)nn3)N1)OCCc1sc(C(F)(F)F)cc12` [Compound 8, (2'S,4S,6'S)-2'-methyl-6'-(1-methyltriazol-4-yl)-2-(trifluoromethyl)spiro[6,7-dihydrothieno[3,2-c]pyran-4,4'-piperidine]], for which the IC90 under setting [1] is below 50 nM. For the same molecule, the “Multi-Tox Assay Max Activity (%)” value under setting [2] came out at 100.0%. For `Cc1ccccc1C(O)Cn1cc([C@@H]2C[C@]3(C[C@H](C)N2)OCC(F)(F)c2cc(Cl)sc23)nn1` (some centres unmarked) [Compound 304], under setting [1], the IC90 was 50 to 500 nM.

As for `C[C@H]1C[C@@]2(C[C@@H](c3cn(CC(=O)N4CCCCC4)nn3)N1)OC[C@@H](O)c1cc(Cl)sc12` [Compound 239], the IC90 under setting [1] was 50 to 500 nM. Further, under setting [2], the “Multi-Tox Assay Max Activity (%)” value stood at 97.0%.

As for `C[C@H]1C[C@@]2(C[C@@H](c3ncc(C(F)(F)F)[nH]3)N1)OCCc1cc(Cl)sc12` (racemic) [Compound 165], under setting [1], the IC90 was above 500 nM. Under setting [2], the “Multi-Tox Assay Max Activity (%)” value was 92.0%.

Turning to `COc1ccc([C@@H]2C[C@]3(C[C@H](C)N2)OCCc2cc(Cl)sc23)cc1O` (racemic) [Compound 99], under setting [1], the IC90 is below 50 nM. With `COc1ccc(Cn2cc([C@@H]3C[C@]4(C[C@H](C)N3)OC[C@@H](O)c3cc(Cl)sc34)nn2)cc1` [Compound 295], the IC90 under setting [1] was in the range of 50 to 500 nM. For `C[C@H]1C[C@@]2(C[C@@H](c3cn(Cc4cnc5cnccn45)nn3)N1)OCC(F)(F)c1cc(Cl)sc12` [Compound 358], the IC90 under setting [1] was below 50 nM. Moreover, under setting [2], the “Multi-Tox Assay Max Activity (%)” value is 98.0%. Turning to `COc1ccc(Cn2cc([C@@H]3C[C@]4(C[C@H](C)N3)OC[C@@H](O)c3cc(Cl)sc34)nn2)cc1F` [Compound 245], the IC90 under setting [1] was in the range of 50 to 500 nM. Take `C[C@@H]1C[C@]2(C[C@H](C)N1)OCC(O)c1cc(Cl)sc12` (mixture of isomers) [Compound 205, (2R,6S)-2-chloro-2',6'-dimethyl-spiro[4,5-dihydrothieno[2,3-c]pyran-7,4'-piperidine]-4-ol]: the Emax came to 99.3%. For the setting “HEK293, read-out: Multi-Tox Assay IC90 (nM)”, the IC90 was in the range of 50 to 500 nM.

On to `Cc1nc2c([C@@H]3C[C@]4(C[C@H](C)N3)OCCc3cc(Cl)sc34)cccc2o1` (racemic) [Compound 170], for which, under setting [1], the IC90 was above 500 nM. Besides, the “Multi-Tox Assay Max Activity (%)” value under setting [2] came out at 89.7%. As for `C[C@H]1C[C@@]2(C[C@@H](c3cn(C)nn3)N1)OCCc1c2sc(C(F)(F)F)c1CO` [Compound 17, [(2'S,6'S,7S)-2'-methyl-6'-(1-methyltriazol-4-yl)-2-(trifluoromethyl)spiro[4,5-dihydrothieno[2,3-c]pyran-7,4'-piperidine]-3-yl]methanol], the IC90 under setting [1] is below 50 nM. Moreover, the Emax under setting [2] was 100%. `Cc1cc([C@@H]2C[C@]3(C[C@H](C)N2)OCCc2cc(Cl)sc23)on1` (racemic) [Compound 66]: under setting [1], the IC90 is below 50 nM. Moreover, under setting [2], the Emax is 99.8%. Regarding `CC1CC2(CC(C3CC3(F)F)N1)OCCc1cc(Cl)sc12` (single isomer, unassigned) [Compound 212], the IC90 under setting [1] is below 50 nM. Moreover, the Emax under setting [2] was determined as 99%.

As for `C[C@H]1C[C@@]2(C[C@@H](c3cocn3)N1)OCCc1cc(Cl)sc12` (racemic) [Compound 79], the IC90 under setting [1] was in the range of 50 to 500 nM. Further, under setting [2], the Emax is 99.7%. On to `C[C@H]1C[C@@]2(C[C@@H](c3cc(C(F)(F)F)[nH]n3)N1)OCCc1cc(Cl)sc12` [Compound 119], for which, under setting [1], the IC90 was in the range of 50 to 500 nM. Under setting [2], the “Multi-Tox Assay Max Activity (%)” value was determined as 99.7%. In the case of `C[C@H]1C[C@@]2(C[C@@H](c3cn(CCO)nn3)N1)OC[C@@H](O)c1cc(Cl)sc12` [Compound 244], the concentration for an effect of 90% (IC90) under setting [1] was in the range of 50 to 500 nM. Besides, the “Multi-Tox Assay Max Activity (%)” value under setting [2] was 100.0%. The corresponding values for `CC(C)c1c[nH]c([C@@H]2C[C@]3(C[C@H](C)N2)OCCc2cc(Cl)sc23)n1` (racemic) [Compound 162] are above 500 nM and 92.0%. The corresponding values for `C[C@H]1C[C@@]2(C[C@@H](c3cn(CC4CCCCO4)nn3)N1)OCC(F)(F)c1cc(Cl)sc12` (some centres unmarked) [Compound 343] are 50 to 500 nM and 97.0%.

For `C[C@@H]1CC2(C[C@H](C)N1)OCCc1c2sc(C(F)(F)F)c1CO` (single isomer, unassigned) [Compound 208], the IC90 under setting [1] is 50 to 500 nM. Besides, the Emax under setting [2] was determined as 99.5%.

On to `C[C@H]1C[C@@]2(C[C@@H](c3cnccn3)N1)OCCc1cc(Cl)sc12` (racemic) [Compound 101], for which the IC90 under setting [1] is below 50 nM. Further, under setting [2], the “Multi-Tox Assay Max Activity (%)” value was found to be 100.0%. The corresponding values for `CNC(=O)c1cccc(C2CC3(CC(C)N2)OCCc2cc(Cl)sc23)c1` (centres unmarked) [Compound 27] are below 50 nM and 100.3%. The corresponding values for `CCOc1cc([C@@H]2C[C@]3(C[C@H](C)N2)OCCc2cc(Cl)sc23)ccc1O` (racemic) [Compound 102] are below 50 nM and 99.8%.

For `CC(=O)Nc1ccc([C@@H]2C[C@]3(C[C@H](C)N2)OCCc2cc(Cl)sc23)cc1` (racemic) [Compound 50], the 90% effect concentration (IC90) under setting [1] was below 50 nM. For the same molecule, the “Multi-Tox Assay Max Activity (%)” value under setting [2] came out at 99.7%. The corresponding values for `COC(=O)Cn1cc([C@@H]2C[C@]3(C[C@H](C)N2)OC[C@@H](O)c2cc(Cl)sc23)nn1` [Compound 263] are above 500 nM and 86.0%. As for `Cc1ncc([C@@H]2C[C@]3(C[C@H](C)N2)OCCc2cc(Cl)sc23)cn1` (racemic) [Compound 82], the IC90 under setting [1] is below 50 nM. For the same molecule, the Emax under setting [2] came out at 99.7%. For the molecule `C[C@H]1C[C@@]2(C[C@@H](c3cn(Cc4cocn4)nn3)N1)OC[C@@H](O)c1cc(Cl)sc12` [Compound 291], under setting [1], the IC90 lay in the range of 50 to 500 nM. Moreover, the “Multi-Tox Assay Max Activity (%)” value under setting [2] came out at 100.0%. For the molecule `C[C@H]1C[C@@]2(C[C@@H](c3cnc(-c4cnn(C)c4)nc3)N1)OCCc1cc(Cl)sc12` [Compound 61], under setting [1], the IC90 is below 50 nM. Further, the Emax under setting [2] was 99.7%. With `COc1cccc(Cn2cc([C@@H]3C[C@]4(C[C@H](C)N3)OC[C@@H](O)c3cc(Cl)sc34)nn2)c1` [Compound 278], the IC90 under setting [1] lay in the range of 50 to 500 nM. Moreover, the “Multi-Tox Assay Max Activity (%)” value under setting [2] worked out at 100.0%. For `C[C@H]1C[C@@]2(C[C@@H](c3cn(C)nn3)N1)OC[C@@H](O)c1cc(Cl)sc12` [Compound 174, (2'S, 4S, 6'S, 7S)-2-chloro-2'-methyl-6'-(1-methyltriazol-4-yl)spiro[4,5-dihydrothieno[2,3-c]pyran-7,4'-piperidine]-4-ol], under setting [1], the IC90 is below 50 nM. Also, the Emax under setting [2] was 99.8%. `C[C@H]1C[C@@]2(C[C@@H](c3cn(Cc4cnccn4)nn3)N1)OC[C@@H](O)c1cc(Cl)sc12` [Compound 276]: the IC90 under setting [1] fell in the range of 50 to 500 nM. The “Multi-Tox Assay Max Activity (%)” value under setting [2] is listed as 100.0%. In the case of `Cc1coc([C@@H]2C[C@]3(C[C@H](C)N2)OCCc2cc(Cl)sc23)n1` (racemic) [Compound 155], the IC90 under setting [1] was above 500 nM. The “Multi-Tox Assay Max Activity (%)” value under setting [2] worked out at 95.2%. The corresponding values for `C[C@H]1C[C@@]2(C[C@@H](c3cn(Cc4cnc5cnccn45)nn3)N1)OC[C@@H](O)c1cc(Cl)sc12` [Compound 243] are 50 to 500 nM and 98.0%.

With `Cn1cc(C2CC3(CC(C4CCC4)N2)OCCc2cc(Cl)sc23)nn1` (centres unmarked) [Compound 189], the 90% effect concentration (IC90) under setting [1] was above 500 nM. Further, the Emax under setting [2] worked out at 97%.
